In US20250034135A1, “ANTI-APOPTOTIC PROTEIN BCL-2 INHIBITOR, PHARMACEUTICAL COMPOSITION AND USES THEREOF” (HANGZHOU HEALZEN THERAPEUTICS CO., LTD., priority 2021, published 2025):

Target: BCL2 (Homo sapiens (Human), UniProt P10415)
Experiment: Molecular level activity test of anti-apoptotic protein BCL2 (HTRF, binding to Bim peptide)
Details: HTRF, binding of BCL2 to Bim peptide; read-out: BCL2 nM (inhibitory activity, IC50)
Outline: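 Competition binding format: recombinant His-BCL2 and a biotin-Bim peptide are incubated with compound for 1 h, followed by 4 h at room temperature with HTRF detection antibodies.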

BCL2, sequence (P10415 whole entry): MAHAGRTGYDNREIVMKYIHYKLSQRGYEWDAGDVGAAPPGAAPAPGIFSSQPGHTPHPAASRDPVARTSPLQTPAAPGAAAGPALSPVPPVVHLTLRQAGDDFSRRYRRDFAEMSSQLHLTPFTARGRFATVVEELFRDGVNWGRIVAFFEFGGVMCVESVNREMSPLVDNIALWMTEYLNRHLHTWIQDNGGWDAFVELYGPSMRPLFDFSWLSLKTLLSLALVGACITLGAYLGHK

IC50, < 10 nM:
CC(C)c1ccccc1[C@@H]1CCCN1C1CC2(CCN(c3cc(Oc4cnc5[nH]ccc5c4)c(C(=O)NS(=O)(=O)c4cc([N+](=O)[O-])c(NCC5(F)CCN(C(=O)CN(C)C)CC5)c5[nH]cnc45)cn3)CC2)C1 [compound 029, (S)-4-((1H-pyrrolo[2,3-b]pyrid-5-yl)oxy)-N-((7-(((1-(dimethylglycyl)-4-fluoropiperid-4-yl)methyl)amino)-6-nitro-1H-benzo[d]imidazol-4-yl)sulfonyl)-6-(2-(2-(2-isopropylphenyl)pyrrolidin-1-yl)-7-azaspiro[3.5]non-7-yl) nicotinamide]
COc1ccc(CN2CCN(C3CC4(CCN(c5cc(Oc6cnc7[nH]ccc7c6)c(C(=O)NS(=O)(=O)c6cc([N+](=O)[O-])c(NCC7(F)CCOCC7)c7c6OCO7)cc5F)CC4)C3)[C@H](c3ccccc3C(C)C)C2)cc1 [compound 106, (R)-2-((1H-pyrrolo[2,3-b]pyrid-5-yl)oxy)-5-fluoro-N-((7-(((4-fluorotetrahydro-2H-pyran-4-yl)methyl)amino)-6-nitrobenzo[d][1,3]dioxocyclopent-4-yl)sulfonyl)-4-(2-(2-(2-isopropylphenyl)-4-(4-methoxybenzyl)piperazin-1-yl)-7-azaspiro[3.5]non-7-yl)benzamide]
CC(C)c1ccccc1C1CN(C(C)C)CCN1C1CC2(CCN(c3ccc(C(=O)NS(=O)(=O)c4cc([N+](=O)[O-])c(NC[C@H]5CC[C@](C)(O)CC5)c5[nH]cnc45)c(Oc4cnc5[nH]ccc5c4)c3)CC2)C1 (stereo partly shown) [compound 041, 2-((1H-pyrrolo[2,3-b]pyrid-5-yl)oxy)-N-((7-((((1r,4r)-4-hydroxy-4-methylcyclohexyl)methyl)amino)-6-nitro-1H-benzo[d]imidazol-4-yl)sulfonyl)-4-(2-(4-isopropyl-2-(2-isopropylphenyl)piperazin-1-yl)-7-azaspiro[3.5]non-7-yl)benzamide]
CC(C)c1ccccc1[C@@H]1CN(Cc2cnn(C(C)C)c2)CCN1C1CC2(CCN(c3cc(Oc4cnc5[nH]ccc5c4)c(C(=O)NS(=O)(=O)c4ccc(NC[C@H]5CC[C@](C)(O)CC5)c([N+](=O)[O-])c4)cc3F)CC2)C1 [compound 230, 2-((1H-pyrrolo[2,3-b]pyrid-5-yl)oxy)-5-fluoro-N-((4-((((1r, 4r)-4-hydroxy-4-methylcyclohexyl)methyl)amino)-3-nitrophenyl)sulfonyl)-4-(2-((R)-4-((1-isopropyl-1H-pyrazole-4-yl)methyl)-2-(2-isopropylphenyl)piperazin-1-yl)-7-azaspiro[3.5]non-7-yl)benzamide]
COc1ccc(CN2CCN(C3CC4(CCN(c5cc(Oc6cnc7[nH]ccc7c6)c(C(=O)NS(=O)(=O)c6cc([N+](=O)[O-])c(NCC7(F)CCOCC7)c7[nH]cnc67)cn5)CC4)C3)C(c3ccccc3C(C)C)C2)cc1 (stereo not shown) [compound 077, 4-((1H-pyrrolo[2,3-b]pyrid-5-yl)oxy)-N-((7-(((4-fluorotetrahydro-2H-pyran-4-yl)methyl)amino)-6-nitro-1H-benzo[d]imidazol-4-yl)sulfonyl)-6-(2-(2-(2-isopropylphenyl)-4-(4-methoxybenzyl)piperazin-1-yl)-7-azaspiro[3.5]non-7-yl) nicotinamide]
COc1cc(CN2CCN(C3CC4(CCN(c5cc(Oc6cnc7[nH]ccc7c6)c(C(=O)NS(=O)(=O)c6ccc(NCC7(F)CCOCC7)c([N+](=O)[O-])c6)cc5F)CC4)C3)[C@H](c3ccccc3C(C)C)C2)ccc1C(C)C [compound 194, (R)-2-((1H-pyrrolo[2,3-b]pyrid-5-yl)oxy)-5-fluoro-N-((4-(((4-fluorotetrahydro-2H-pyran-4-yl)methyl)amino)-3-nitrophenyl)sulfonyl)-4-(2-(4-(4-isopropyl-3-methoxybenzyl)-2-(2-isopropylphenyl)piperazin-1-yl)-7-azaspiro[3.5]non-7-yl)benzamide]
COc1ccc(CN2CCN(C3CC4(CCN(c5cc(Oc6cnc7[nH]ccc7c6)c(C(=O)NS(=O)(=O)c6ccc(NCC7CCOCC7)c([N+](=O)[O-])c6)cc5F)CC4)C3)C(c3ccccc3C(C)C)C2)cc1 (stereo not shown) [compound 064, 2-((1H-pyrrolo[2,3-b]pyrid-5-yl)oxy)-5-fluoro-4-(2-(2-(2-isopropylphenyl)-4-(4-methoxybenzyl)piperazin-1-yl)-7-azaspiro[3.5]non-7-yl)-N-((3-nitro-4-(((tetrahydro-2H-pyran-4-yl)methyl)amino)phenyl)sulfonyl)benzamide]
CC(C)c1ccccc1C1CN(C2CCOCC2)CCN1C1CC2(CCN(c3cc(Oc4cnc5[nH]cc(F)c5c4)c(C(=O)NS(=O)(=O)c4ccc(NC[C@H]5CC[C@](C)(O)CC5)c([N+](=O)[O-])c4)cn3)CC2)C1 (stereo partly shown) [compound 059, 4-((3-fluoro-1H-pyrrolo[2,3-b]pyrid-5-yl)oxy)-N-((4-((((1r,4r)-4-hydroxy-4-methylcyclohexyl)methyl)amino)-3-nitrophenyl)sulfonyl)-6-(2-(2-(2-isopropylphenyl)-4-(tetrahydro-2H-pyran-4-yl)piperazin-1-yl)-7-azaspiro[3.5]non-7-yl) nicotinamide]
COc1ccc(CN2CCN(C3CC4(CCN(c5cc(Oc6cnc7[nH]ccc7c6)c(C(=O)NS(=O)(=O)c6cc([N+](=O)[O-])c(NC[C@H]7CC[C@](C)(O)CC7)c7c6OCO7)cc5F)CC4)C3)[C@H](c3ccccc3C(C)C)C2)cc1 [compound 113, 2-((1H-pyrrolo[2,3-b]pyrid-5-yl)oxy)-5-fluoro-N-((7-((((1r, 4r)-4-hydroxy-4-methylcyclohexyl)methyl)amino)-6-nitrobenzo[d][1,3]dioxocyclopent-4-yl)sulfonyl)-4-(2-((R)-2-(2-isopropylphenyl)-4-(4-methoxybenzyl)piperazin-1-yl)-7-azaspiro[3.5]non-7-yl)benzamide]
COc1ccc(CN2CCN(C3CC4(CCN(c5cc(Oc6cnc7[nH]ccc7c6)c(C(=O)NS(=O)(=O)c6cc([N+](=O)[O-])c(NC[C@H]7CC[C@](C)(O)CC7)c7occc67)cc5F)CC4)C3)[C@H](c3ccccc3C(C)C)C2)cc1 [compound 115, 2-((1H-pyrrolo[2,3-b]pyrid-5-yl)oxy)-5-fluoro-N-((7-((((1r, 4r)-4-hydroxy-4-methylcyclohexyl)methyl)amino)-6-nitrobenzofuran-4-yl)sulfonyl)-4-(2-((R)-2-(2-isopropylphenyl)-4-(4-methoxybenzyl)piperazin-1-yl)-7-azaspiro[3.5]non-7-yl)benzamide]
COc1ccc(CN2CCN(C3CC4(CCN(c5cc(Oc6cnc7[nH]ccc7c6)c(C(=O)NS(=O)(=O)c6cc([N+](=O)[O-])c(NCC7CCOCC7)c7scnc67)cc5F)CC4)C3)[C@H](c3ccccc3C(C)C)C2)cc1 [compound 122, (R)-2-((1H-pyrrolo[2,3-b]pyrid-5-yl)oxy)-5-fluoro-4-(2-(2-(2-isopropylphenyl)-4-(4-methoxybenzyl)piperazin-1-yl)-7-azaspiro[3.5]non-7-yl)-N-((6-nitro-7-(((tetrahydro-2H-pyran-4-yl)methyl)amino)benzo[d]thiazol-4-yl)sulfonyl)benzamide]
COc1ccc(CN2CCN(C3CC4(CCN(c5cc(Oc6cnc7[nH]ccc7c6)c(C(=O)NS(=O)(=O)c6ccc(NC[C@H]7CC[C@](C)(O)CC7)c([N+](=O)[O-])c6)cc5F)CC4)C3)C(c3ccccc3C(C)C)C2)cc1 (stereo partly shown) [compound 055, 2-((1H-pyrrolo[2,3-b]pyrid-5-yl)oxy)-5-fluoro-N-((4-((((1r,4r)-4-hydroxy-4-methylcyclohexyl)methyl)amino)-3-nitrophenyl)sulfonyl)-4-(2-(2-(2-isopropylphenyl)-4-(4-methoxybenzyl)piperazin-1-yl)-7-azaspiro[3.5]non-7-yl)benzamide]
COc1ccc(CN2CCN(C3CC4(CCN(c5cc(Oc6cnc7[nH]ccc7c6)c(C(=O)NS(=O)(=O)c6cc([N+](=O)[O-])c(NCC7(F)CCN(C(C)C)CC7)c7[nH]cnc67)cc5F)CC4)C3)C(c3ccccc3C(C)C)C2)cc1 (stereo not shown) [compound 073, 2-((1H-pyrrolo[2,3-b]pyrid-5-yl)oxy)-5-fluoro-N-((7-(((4-fluoro-1-isopropylpiperid-4-yl)methyl)amino)-6-nitro-1H-benzo[d]imidazol-4-yl)sulfonyl)-4-(2-(2-(2-isopropylphenyl)-4-(4-methoxybenzyl)piperazin-1-yl)-7-azaspiro[3.5]non-7-yl)benzamide]
COc1ccc(CN2CCN(C3CC4(CCN(c5ccc(C(=O)NS(=O)(=O)c6cc([N+](=O)[O-])c(NC[C@H]7CC[C@](C)(O)CC7)c7[nH]cnc67)c(Oc6cnc7[nH]ccc7c6)c5)CC4)C3)C(c3ccccc3C(C)C)C2)cn1 (stereo partly shown) [compound 045, 2-((1H-pyrrolo[2,3-b]pyrid-5-yl)oxy)-N-((7-((((1r,4r)-4-hydroxy-4-methylcyclohexyl)methyl)amino)-6-nitro-1H-benzo[d]imidazol-4-yl)sulfonyl)-4-(2-(2-(2-isopropylphenyl)-4-((6-methoxypyrid-3-yl)methyl)piperazin-1-yl)-7-azaspiro[3.5]non-7-yl)benzamide]
COc1ccc(CN2CCN(C3CC4(CCN(c5cc(Oc6cnc7[nH]ccc7c6)c(C(=O)NS(=O)(=O)c6cc([N+](=O)[O-])c(NCC7CCOCC7)c7[nH]cnc67)cc5F)CC4)C3)C(c3ccccc3C(C)C)C2)cc1 (stereo not shown) [compound 076, 2-((1H-pyrrolo[2,3-b]pyrid-5-yl)oxy)-5-fluoro-4-(2-(2-(2-isopropylphenyl)-4-(4-methoxybenzyl)piperazin-1-yl)-7-azaspiro[3.5]non-7-yl)-N-((6-nitro-7-(((tetrahydro-2H-pyran-4-yl)methyl)amino)-1H-benzo[d]imidazol-4-yl)sulfonyl)benzamide]
COc1ccc(CN2CCN(C3CC4(CCN(c5cc(Oc6cnc7[nH]ccc7c6)c(C(=O)NS(=O)(=O)c6cc([N+](=O)[O-])c(NCC7(F)CCOCC7)c7c6OCCO7)cc5F)CC4)C3)[C@H](c3ccccc3C(C)C)C2)cc1 [compound 110, (R)-2-((1H-pyrrolo[2,3-b]pyrid-5-yl)oxy)-5-fluoro-N-((8-(((4-fluorotetrahydro-2H-pyran-4-yl)methyl)amino)-7-nitro-2,3-dihydrobenzo[b][1,4]dioxane-5yl)sulfonyl)-4-(2-(2-(2-isopropylphenyl)-4-(4-methoxybenzyl)piperazin-1-yl)-7-azaspiro[3.5]non-7-yl)benzamide]
